SMILES strings stand for the structures. Values joined by “and” are separate entries in the source; they are usually repeats but may differ in a detail not shown here. Equal entries are not always repeated.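 1) Cells in 96-well plates. 2) Compound, 48 h, 5 concentrations. 3) Linear interpolation between surrounding doses. 4) Unreached endpoint = highest concentration. At the GI50, growth is halved. TGI marks complete inhibition of growth.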 Bounds are passed on as bounds.

One experiment relates to HCT-116 colon. Kind of experiment: growth of human tumour cells (NCI), 48 h.
In turn, `Cc1c(C2=C(Br)C(=O)N(C)C2=O)c(=O)n(C)c(=O)n1C` returned a TGI of 40.9 µM.
`N#CC(=NCCO)C1=C(O)c2ccccc2C1=O` returned a TGI of more than 100 µM.
`NC(CS/C(Cl)=C/Cl)C(=O)O` (centres undefined): the GI50 is 34.6 µM and the TGI is more than 100 µM.
As to `CCn1c(CO)nn(-c2cc(O[C@@H](C)C(F)(F)F)c(C(=O)Nc3c(F)cccc3Cl)cc2F)c1=O`, the GI50 was less than 0.01 µM and the TGI was more than 100 µM.
As to `CC1CCC(=O)C(C(=O)CC2CC(=O)NC(=O)C2)C1` (centres undefined), the TGI was more than 100 µM.
With `O=C(Nc1ccc(CO)cc1)c1coc2ccccc2c1=O`, the GI50 is more than 100 µM and the TGI was more than 100 µM.
Regarding `CC(=O)/C=C/c1ccc(C#Cc2ccccc2)s1`, the GI50 was 3.67 µM and the TGI was 14.9 µM.
Take `COc1ccc2c(c1)C(C)Cc1c(ncnc1-n1c(C)nc3ccccc31)N2C` (centres undefined): the GI50 was 3.46 µM and the TGI amounted to 16.2 µM.
`CC(C)OC(=O)NNc1cc(Cl)ccc1Cl` returned a TGI of more than 100 µM.
In the case of `COc1ccc2c(O)cc3c(c2c1)[C@H](CCl)CN3C(=O)c1cc2cc(NC(=O)CCN3CCOCC3)ccc2[se]1`, the GI50 was less than 0.001 µM and the TGI was more than 3.25 µM.
In turn, `COc1cc2c(cc1O)C1Cc3ccc(OC)c(O)c3C(C2)N1C` (centres undefined) displayed a TGI of more than 100 µM.
Regarding `CCOC(=O)CNC(=O)c1ccccc1Nc1ccnc(C(F)(F)F)c1`, the GI50 is 30.5 µM and the TGI is more than 69.8 µM.
In turn, `COc1ccc2c(c1)[C@@]13CCCC[C@H]1[C@@H](C2)N(C)CC3=O` registered a TGI of 29.7 µM.
`COc1cccc(/C(COc2ccc3c(c2)oc(=O)c2cc(OC)ccc23)=N/O)c1`: the GI50 was 4.27 µM and the TGI was more than 100 µM.
In the case of `N=C(N)SCc1cccc(-c2nc3ccccc3c(=O)o2)c1`, the TGI was more than 100 µM.
Take `COc1cc2c(c(OC)n1)[C@]1(O)[C@H](O)[C@H](CN(C)C)[C@@H](c3ccccc3)[C@]1(c1ccc(C#N)cc1)O2`: the GI50 was less than 0.01 µM; the TGI is 2.65 µM and 1.7 µM.
Molecule `C=CCSS/C=C/CS(=O)CC=C` (centres undefined) displayed a TGI of 27.3 µM.
For the molecule `COc1ccc(Nc2c3ccccc3nc3occ(Cl)c23)cc1`, the GI50 is less than 0.01 µM and the TGI stood at 3.29 µM.
As to `O=C(/C=C/c1cc(CN2CCOCC2)c(O)c2ncccc12)c1cc(CN2CCOCC2)c(O)c2ncccc12`, the GI50 is 0.0245 µM and the TGI was more than 100 µM.

The subject of another experiment is T-47D breast. The experiment is described as follows: growth of human tumour cells (NCI), 48 h.
`Cc1c(C2=C(Br)C(=O)N(C)C2=O)c(=O)n(C)c(=O)n1C` had a TGI of 42.6 µM.
On to `N#CC(=NCCO)C1=C(O)c2ccccc2C1=O`, for which the TGI was more than 100 µM.
As to `NC(CS/C(Cl)=C/Cl)C(=O)O` (centres undefined), the GI50 was 2680 nM and the TGI was 15.2 µM.
As for `CCn1c(CO)nn(-c2cc(O[C@@H](C)C(F)(F)F)c(C(=O)Nc3c(F)cccc3Cl)cc2F)c1=O`, the GI50 is 72.3 nM and the TGI was 86.2 µM.
With `CC1CCC(=O)C(C(=O)CC2CC(=O)NC(=O)C2)C1` (centres undefined), the TGI is more than 100 µM.
Take `O=C(Nc1ccc(CO)cc1)c1coc2ccccc2c1=O`: the GI50 was more than 100000 nM and the TGI is more than 100 µM.
As to `CC(=O)/C=C/c1ccc(C#Cc2ccccc2)s1`, the GI50 is 11400 nM and the TGI is 28.4 µM.
Take `COc1ccc2c(c1)C(C)Cc1c(ncnc1-n1c(C)nc3ccccc31)N2C` (centres undefined): the GI50 was 6500 nM and the TGI turned out to be 49.9 µM.
`CC(C)OC(=O)NNc1cc(Cl)ccc1Cl` had a TGI of more than 100 µM.
Turning to `COc1ccc2c(O)cc3c(c2c1)[C@H](CCl)CN3C(=O)c1cc2cc(NC(=O)CCN3CCOCC3)ccc2[se]1`, the GI50 was less than 1 nM.
`COc1cc2c(cc1O)C1Cc3ccc(OC)c(O)c3C(C2)N1C` (centres undefined) gave a TGI of more than 100 µM.
In the case of `CCOC(=O)CNC(=O)c1ccccc1Nc1ccnc(C(F)(F)F)c1`, the GI50 was 41900 nM and the TGI was more than 100 µM.
`COc1ccc2c(c1)[C@@]13CCCC[C@H]1[C@@H](C2)N(C)CC3=O` had a TGI of 33.2 µM.
On to `COc1cccc(/C(COc2ccc3c(c2)oc(=O)c2cc(OC)ccc23)=N/O)c1`, for which the GI50 was 4850 nM and the TGI was more than 100 µM.
For the molecule `N=C(N)SCc1cccc(-c2nc3ccccc3c(=O)o2)c1`, the TGI was more than 100 µM.
Consider `COc1cc2c(c(OC)n1)[C@]1(O)[C@H](O)[C@H](CN(C)C)[C@@H](c3ccccc3)[C@]1(c1ccc(C#N)cc1)O2`, for which the GI50 is less than 10 nM; the TGI was 3.81 µM and 2.33 µM.
For `C=CCSS/C=C/CS(=O)CC=C` (centres undefined), the TGI was more than 100 µM.
Take `COc1ccc(Nc2c3ccccc3nc3occ(Cl)c23)cc1`: the GI50 is 88.3 nM and the TGI is more than 100 µM.
Regarding `O=C(/C=C/c1cc(CN2CCOCC2)c(O)c2ncccc12)c1cc(CN2CCOCC2)c(O)c2ncccc12`, the GI50 was 57.4 nM and the TGI was determined as 2.48 µM.

Another experiment concerns BT-549 breast. Kind of experiment: growth of human tumour cells (NCI), 48 h.
`Cc1c(C2=C(Br)C(=O)N(C)C2=O)c(=O)n(C)c(=O)n1C` gave a TGI of 51.1 µM.
Same read-out and setting: then `N#CC(=NCCO)C1=C(O)c2ccccc2C1=O`, with more than 100 µM.
Regarding `NC(CS/C(Cl)=C/Cl)C(=O)O` (centres undefined), the GI50 was 12.1 µM and the TGI was more than 64.1 µM.
For the molecule `CCn1c(CO)nn(-c2cc(O[C@@H](C)C(F)(F)F)c(C(=O)Nc3c(F)cccc3Cl)cc2F)c1=O`, the TGI was more than 100 µM.
Molecule `CC1CCC(=O)C(C(=O)CC2CC(=O)NC(=O)C2)C1` (centres undefined) displayed a TGI of more than 100 µM.
`O=C(Nc1ccc(CO)cc1)c1coc2ccccc2c1=O`: the GI50 was 90.7 µM and the TGI is more than 100 µM.
The corresponding values for `CC(=O)/C=C/c1ccc(C#Cc2ccccc2)s1` are 13.5 µM and 28 µM.
Turning to `COc1ccc2c(c1)C(C)Cc1c(ncnc1-n1c(C)nc3ccccc31)N2C` (centres undefined), the GI50 is 5.82 µM and the TGI is 30.6 µM.
`CC(C)OC(=O)NNc1cc(Cl)ccc1Cl` displayed a TGI of more than 100 µM.
`COc1ccc2c(O)cc3c(c2c1)[C@H](CCl)CN3C(=O)c1cc2cc(NC(=O)CCN3CCOCC3)ccc2[se]1`: the GI50 was 0.00104 µM and the TGI turned out to be 0.00649 µM.
`COc1cc2c(cc1O)C1Cc3ccc(OC)c(O)c3C(C2)N1C` (centres undefined) came in with a TGI of more than 100 µM.
For `CCOC(=O)CNC(=O)c1ccccc1Nc1ccnc(C(F)(F)F)c1`, the GI50 was 42 µM and the TGI was more than 100 µM.
`COc1ccc2c(c1)[C@@]13CCCC[C@H]1[C@@H](C2)N(C)CC3=O` registered a TGI of 31.4 µM.
For `COc1cccc(/C(COc2ccc3c(c2)oc(=O)c2cc(OC)ccc23)=N/O)c1`, the GI50 was 11.7 µM and the TGI was more than 100 µM.
Turning to `N=C(N)SCc1cccc(-c2nc3ccccc3c(=O)o2)c1`, the TGI was more than 100 µM.
For `COc1cc2c(c(OC)n1)[C@]1(O)[C@H](O)[C@H](CN(C)C)[C@@H](c3ccccc3)[C@]1(c1ccc(C#N)cc1)O2`, the GI50 was 0.0451 µM and 0.0737 µM; the TGI is 0.825 µM and 2.62 µM.
In turn, `C=CCSS/C=C/CS(=O)CC=C` (centres undefined) came in with a TGI of more than 56.7 µM.
Consider `COc1ccc(Nc2c3ccccc3nc3occ(Cl)c23)cc1`, for which the GI50 is 2.05 µM and the TGI was 26.2 µM.
Take `O=C(/C=C/c1cc(CN2CCOCC2)c(O)c2ncccc12)c1cc(CN2CCOCC2)c(O)c2ncccc12`: the GI50 was 0.0287 µM and the TGI was 16.9 µM.

For a further experiment, the system named is COLO 205 colon. The experiment is described as follows: growth of human tumour cells (NCI), 48 h.
Regarding `Cc1c(C2=C(Br)C(=O)N(C)C2=O)c(=O)n(C)c(=O)n1C`, the TGI worked out at 34.5 µM.
The molecule `N#CC(=NCCO)C1=C(O)c2ccccc2C1=O` came in with a TGI of more than 100 µM.
For `NC(CS/C(Cl)=C/Cl)C(=O)O` (centres undefined), the GI50 was 26.6 µM and the TGI was more than 69.7 µM.
The matching figures for `CCn1c(CO)nn(-c2cc(O[C@@H](C)C(F)(F)F)c(C(=O)Nc3c(F)cccc3Cl)cc2F)c1=O`: less than 0.01 µM and more than 100 µM.
For `CC1CCC(=O)C(C(=O)CC2CC(=O)NC(=O)C2)C1` (centres undefined), the TGI was more than 100 µM.
As to `O=C(Nc1ccc(CO)cc1)c1coc2ccccc2c1=O`, the GI50 is more than 100 µM and the TGI is more than 100 µM.
Turning to `CC(=O)/C=C/c1ccc(C#Cc2ccccc2)s1`, the GI50 was 16.9 µM and the TGI was 31 µM.
The corresponding values for `COc1ccc2c(c1)C(C)Cc1c(ncnc1-n1c(C)nc3ccccc31)N2C` (centres undefined) are 2.76 µM and 11.1 µM.
`CC(C)OC(=O)NNc1cc(Cl)ccc1Cl` returned a TGI of more than 100 µM.
On to `COc1ccc2c(O)cc3c(c2c1)[C@H](CCl)CN3C(=O)c1cc2cc(NC(=O)CCN3CCOCC3)ccc2[se]1`, for which the GI50 is less than 0.001 µM and the TGI is more than 10 µM.
